Experimental data taken from patent US12318370B2, “Processes for preparing solid state forms” (Varda Space Industries, Inc., priority 2022, dated 2025).

Assays:
Type in all cases: physicochemical
Manual grinding, XRPD = details: mortar and pestle, five cycles of 2 minutes (10 minutes total)
[1] = Temperature and humidity stress test, 40° C./75% RH, XRPD; details: for Change of solid form under stress, in words: 40° C. and 75% RH, XRPD at 30, 60 and 96 days; for Solid form after stress test / Time at which conversion to Form I was detected: 40° C./75% RH; for Solid form after stress test: XRPD
Protocol: XRPD was measured at 30, 60, and 96 days (FIG. 15).

[2] = Longer-term stability at ambient conditions, Raman; details: 5 weeks and up to 23 weeks
Protocol: Additionally, a longer-term stability study was performed.

[3] = Short-term thermal stability, Raman microscopy; details: sequentially 15 minutes at 50° C., 70° C. and 90° C., Raman after each
Protocol: Short-term thermal stability experiments were conducted by holding the material from example 1f sequentially for 15 minutes at 50° C., 15 minutes at 70° C., and 15 minutes at 90° C. The sample was analyzed by Raman microscopy after each temperature exposure. […] FIG. 10 compares the short-term thermal stability results to the reference spectra from FIG. 9.

[4] = Compression at 700 lbs, XRPD; details: XRPD before and after, listed as ritonavir Form III
[5] = Dynamic vapor sorption (DVS); details: 5% to 95% RH
Description: No hysteresis was observed. DVS isotherms were characterized using a VTI SGA-100 Vapor Sorption Analyzer. The sample was not dried prior to analysis. Sorption and desorption isotherms were collected over a range from 5% to 95% RH at 10% RH increments under a dry air purge. The equilibrium criterion used for analysis was less than 0.0100%^0/weight change in five minutes with a maximum equilibration time of three hours and a 2-minute data logging interval. Data were not corrected for the initial moisture content of the sample.

Row | Solid form after manual grinding (Manual grinding, XRPD) | Change of solid form under stress, in words [1] | Solid form after stress test ([1]; 30 days) | Solid form after stress test ([1]; 60 days) | Solid form after stress test ([1]; 96 days) | Time at which conversion to Form I was detected ([1]; listed as amorphous ritonavir) | Solid form after manual grinding (Manual grinding, XRPD; listed as Amorphous material) | Solid form after stress test ([1]; 96 days, listed as ritonavir Form III) | Time at which conversion to Form I was detected ([1]; listed as Form III ritonavir) | Time at which conversion to Form I was detected ([1]; listed as ritonavir Form III) | Solid form after storage at ambient conditions [2] | Solid form after short-term thermal exposure [3] | Solid form after manual grinding (Manual grinding, XRPD; listed as ritonavir Form III) | Change of solid form after compression [4] | Hygroscopicity [5] | SMILES
1 | mixture of amorphous and Form II |  |  |  |  |  |  |  |  |  |  |  |  |  |  | CC(C)c1nc(CN(C)C(=O)N[C@H](C(=O)N[C@@H](Cc2ccccc2)C[C@H](O)[C@H](Cc2ccccc2)NC(=O)OCc2cncs2)C(C)C)cs1 (single isomer, unassigned) [Form II, 10-hydroxy-2-methyl-5-(1-methylethyl)-1-[2-(1-methylethyl)-4-thiazolyl]-3,6-dioxo-8,11-bis(phenylmethyl)-2,4,7,12-tetraazatridecan-13-oic acid, 5-thiazolylmethyl ester, [SS-(5R*,8R*,10R*,1R*)]]
2 |  | No change | Form I | Form I | Form I | ≤ 30 days | remained unchanged |  |  |  |  |  |  |  |  | CC(C)c1nc(CN(C)C(=O)N[C@H](C(=O)N[C@@H](Cc2ccccc2)C[C@H](O)[C@H](Cc2ccccc2)NC(=O)OCc2cncs2)C(C)C)cs1 (single isomer, unassigned) [Amorphous, 10-hydroxy-2-methyl-5-(1-methylethyl)-1-[2-(1-methylethyl)-4-thiazolyl]-3,6-dioxo-8,11-bis(phenylmethyl)-2,4,7,12-tetraazatridecan-13-oic acid, 5-thiazolylmethyl ester, [SS-(5R*,8R*,10R*,1R*)]]
3 | Mixture of amorphous and Form I | No change | Form I | Form I | Form I |  |  |  |  |  |  |  |  |  |  | CC(C)c1nc(CN(C)C(=O)N[C@H](C(=O)N[C@@H](Cc2ccccc2)C[C@H](O)[C@H](Cc2ccccc2)NC(=O)OCc2cncs2)C(C)C)cs1 (single isomer, unassigned) [Form I, 10-hydroxy-2-methyl-5-(1-methylethyl)-1-[2-(1-methylethyl)-4-thiazolyl]-3,6-dioxo-8,11-bis(phenylmethyl)-2,4,7,12-tetraazatridecan-13-oic acid, 5-thiazolylmethyl ester, [SS-(5R*,8R*,10R*,1R*)]]
4 |  |  | Form III | Form III + Form I | Form III + Form I |  |  | presence of Form I peaks | 60 days | 60 days | remained unchanged | remained as Form III ritonavir | amorphous with traces of Form III | no change | not hygroscopic | CC(C)c1nc(CN(C)C(=O)N[C@H](C(=O)N[C@@H](Cc2ccccc2)C[C@H](O)[C@H](Cc2ccccc2)NC(=O)OCc2cncs2)C(C)C)cs1 (single isomer, unassigned) [Form III, 10-hydroxy-2-methyl-5-(1-methylethyl)-1-[2-(1-methylethyl)-4-thiazolyl]-3,6-dioxo-8,11-bis(phenylmethyl)-2,4,7,12-tetraazatridecan-13-oic acid, 5-thiazolylmethyl ester, [SS-(5R*,8R*,10R*,1R*)]]
